# Measurements published in patent US4383114A, “Adenosine deaminase resistant antiviral purine arabinonucleosides” (priority 1981, dated 1983).
# Values joined by “and” are separate entries in the source; they are usually repeats but may differ in a detail not shown here. Equal entries are not always repeated.
# Tests used:
# [1] = system: herpes simplex virus (HSV) type 1 (strain HF); type: cell-based, herpes simplex virus type 1
# [2] = toxicity in uninfected (toxicity control) or treated mice; type: in vivo, Random-bred Swiss mice, female; conditions: for Avg. Body Wt. on Day 0 / Avg. Body Wt. on Day 7 / Avg. Body Wt. on Day 14 / Avg. Body Wt. on Day 21 / Mortality: No. Dead/Total No. of Mice / mortality at 504 h: uninfected toxicity controls; for mortality at 504 h: mouse, in vivo, ip
# Description: River Breeding Laboratories, Inc.
# cellulose (HPC) at four different
# centrations so that a single daily
# volume of 0.01 ml/gm of body
# The drugs were administered once
# for 7 days beginning 4 hours after […]
# [3] = system: calf intestinal mucosa adenosine deaminase (Sigma Chemical Company); test: adenosine deaminase activity on Ara-A, Cyclaradine and Aristeromycin (Example 14); type: in vitro ADME; conditions: 1×10^-4 M, pH 7.5, 17.75 units/ml enzyme
# Source text: The deaminated products were further identified by thin-layer chromatography using authentic samples for reference.
# [4] = cytotoxicity, growing P-388 mouse lymphoid leukemia cells in presence of drug; conditions: p-388 cells
# [5] = system: vaccinia virus (VV) (Strain Lederle Chorioallantoic); test: microbe, parasite or virus in culture; type: cell-based
# adenosine deaminase [6] = test: inhibition of enzymatic deamination of ara-A or adenosine; type: biochemical, calf; conditions: substrates ara-A or adenosine
# [7] = system: calf intestinal adenosine deaminase (type III, Sigma); test: resistance to deamination by adenosine deaminase (Example 11); conditions: for deamination by adenosine deaminase: conditions under which ara-A is completely deaminated
# HSV and VV = test: organism not typed; type: cell-based
# adenosine deaminase [8] = conditions: background statement; cited from earlier work
smiles,measurement,setting,value
"Nc1ncnc2c1ncn2[C@@H]1C[C@H](CO)[C@@H](O)[C@@H]1O (relative stereo) [cyclaradine, 9-[α-(2α,3β-Dihydroxy-4α(hydroxymethyl)cyclopentyl)]adenine]",Virus Rating (VR),[1],2.2 and 3.5
same,weight loss or apparent toxicity,[2]; 750 mg/kg/day (equimolar to ara-A 755.3 mg/kg/day),no significant weight loss or apparent toxicity
same,lethal toxicity for uninfected animals,"[2]; 900 mg/kg/day, qd 1-7, uninfected",apparently not lethally toxic
same,Avg. Body Wt. on Day 0,[2]; C-Ara-A 112.5 mg/kg/day,21.8 gm
same,Avg. Body Wt. on Day 7,[2]; C-Ara-A 112.5 mg/kg/day,24.5 gm
same,Avg. Body Wt. on Day 14,[2]; C-Ara-A 112.5 mg/kg/day,26.5 gm
same,Avg. Body Wt. on Day 21,[2]; C-Ara-A 112.5 mg/kg/day,28.5 gm
same,Mortality: No. Dead/Total No. of Mice,[2]; C-Ara-A 112.5 mg/kg/day,0/5
same,Avg. Body Wt. on Day 0,[2]; C-Ara-A 225 mg/kg/day,21.8 gm
same,Avg. Body Wt. on Day 7,[2]; C-Ara-A 225 mg/kg/day,24.4 gm
same,Avg. Body Wt. on Day 14,[2]; C-Ara-A 225 mg/kg/day,26.8 gm
same,Avg. Body Wt. on Day 21,[2]; C-Ara-A 225 mg/kg/day,29.3 gm
same,Mortality: No. Dead/Total No. of Mice,[2]; C-Ara-A 225 mg/kg/day,0/5
same,Avg. Body Wt. on Day 0,[2]; C-Ara-A 450 mg/kg/day,21.6 gm
same,Avg. Body Wt. on Day 7,[2]; C-Ara-A 450 mg/kg/day,22.6 gm
same,Avg. Body Wt. on Day 14,[2]; C-Ara-A 450 mg/kg/day,25.9 gm
same,Avg. Body Wt. on Day 21,[2]; C-Ara-A 450 mg/kg/day,28.3 gm
same,Mortality: No. Dead/Total No. of Mice,[2]; C-Ara-A 450 mg/kg/day,0/5
same,Avg. Body Wt. on Day 0,[2]; C-Ara-A 900 mg/kg/day,21.8 gm
same,Avg. Body Wt. on Day 7,[2]; C-Ara-A 900 mg/kg/day,22.5 gm
same,Avg. Body Wt. on Day 14,[2]; C-Ara-A 900 mg/kg/day,25.3 gm
same,Avg. Body Wt. on Day 21,[2]; C-Ara-A 900 mg/kg/day,28 gm
same,Mortality: No. Dead/Total No. of Mice,[2]; C-Ara-A 900 mg/kg/day,0/5
same,toxicity of dose levels,"[2]; cyclaradine 112.5 to 450 mg/kg/day, qd 1-7",non-toxic
same,tolerability compared with ara-A,"[2]; higher dose levels, mice",obviously better tolerated than ara-A
same,mortality at 504 h,[2]; C-Ara-A 112.5 mg/kg/day,0%
same,mortality at 504 h,[2]; C-Ara-A 225 mg/kg/day,0%
same,mortality at 504 h,[2]; C-Ara-A 450 mg/kg/day,0%
same,mortality at 504 h,[2]; C-Ara-A 900 mg/kg/day,0%
same,conversion to deaminated product,[3]; overnight incubation,no conversion to deaminated product was detected
same,CC50,[4],10 µM
same,EC50,"[5]; Orthopoxvirus vaccinia, HEp-2, read-out: MED50 (minimum drug dose required for 50% inhibition of virus-induced cpe)",9 µg/mL
same,Virus Rating (VR),"[5]; vaccinia virus, HEp-2 cells, VR ≥ 1.0 definite, 0.5-0.9 marginal to moderate, < 0.5 no apparent antiviral activity",1.5 and 1.7
same,inhibition of enzymatic deamination,adenosine deaminase [6],did not inhibit
same,deamination by adenosine deaminase,[7],no detectable deamination
same,antiviral activity against HSV and VV,HSV and VV,highly significant antiviral activity
same,EC50,HSV and VV; read-out: approximate MED50,~9 µg/mL
Nc1ncnc2c1ncn2[C@@H]1C[C@H](CO)[C@@H](O)[C@H]1O [Aristeromycin],conversion to deaminated product,"[3]; 2 hours, 25° C",complete conversion
"Nc1ncnc2c1ncn2[C@@H]1O[C@H](CO)[C@@H](O)[C@@H]1O [ara-A, reference compound]",mortality and weight loss,"[2]; 755.3 mg/kg/day, qd 1-7",Significant mortality and severe weight loss
same,Avg. Body Wt. on Day 0,[2]; Ara-A 125 mg/kg/day,21.7 gm
same,Avg. Body Wt. on Day 7,[2]; Ara-A 125 mg/kg/day,25.4 gm
same,Avg. Body Wt. on Day 14,[2]; Ara-A 125 mg/kg/day,27.3 gm
same,Avg. Body Wt. on Day 21,[2]; Ara-A 125 mg/kg/day,29.5 gm
same,Mortality: No. Dead/Total No. of Mice,[2]; Ara-A 125 mg/kg/day,0/10
same,Avg. Body Wt. on Day 0,[2]; Ara-A 250 mg/kg/day,21.7 gm
same,Avg. Body Wt. on Day 7,[2]; Ara-A 250 mg/kg/day,25.1 gm
same,Avg. Body Wt. on Day 14,[2]; Ara-A 250 mg/kg/day,26.6 gm
same,Avg. Body Wt. on Day 21,[2]; Ara-A 250 mg/kg/day,29.1 gm
same,Mortality: No. Dead/Total No. of Mice,[2]; Ara-A 250 mg/kg/day,0/10
same,toxicity of dose levels,"[2]; ara-A 125 to 250 mg/kg/day, qd 1-7",non-toxic
same,mortality at 504 h,[2]; Ara-A 125 mg/kg/day,0%
same,mortality at 504 h,[2]; Ara-A 250 mg/kg/day,0%
same,approx. LD10,"[2]; qd 1-7 schedule, mice",~600 mg/kg/day
same,conversion to deaminated product,"[3]; 2 hours, 25° C",complete conversion
same,CC50,[4],10 µM
same,deamination rate,[7],1 μmole/min/unit of enzyme
same,deamination by adenosine deaminase,[7],completely deaminated
same,deamination by adenosine deaminase,adenosine deaminase [8],rapidly deaminated
